Where two headings read alike, the source gives them in different places.
Assays:
myocardium [1] = assay: Closed chest ultrasound imaging of the heart with contrast agent, then adenosine bolus; format: in vivo, dog; details: Preparation 1 contrast agent
Excerpt: The procedure of Example 1 was repeated with a closed chest dog, using a parasternal transducer position. The resulting ultrasound images were less homogeneous as regards signal intensities than the images obtained in Example 1, as a result of acoustic effects of the intact chest wall.
(§1) In order to analyse ultrasound images obtained according to the procedure of Example 1, the images were first converted from video images into grey level digital images (640×480 pixels) using a frame grabber. A fixed central region (399×399 pixels) covering the image sector was selected for further processing. The thus-obtained images were decimated by averaging 3×3 pixels into new images (133×133 pixels) and were then median filtered using a sliding region (5×5 pixels).
(§2) A single image obtained just before onset of adenosine-induced vasodilatation was selected as a geometrical template to which all other images were automatically adjusted to maximum pixel correlation by an affine transformation (6 degrees of freedom). Only pixels within a region of interest in the template image encompassing the left ventricle and its myocardium were used for calculating maximum pairwise pixel grey level correlation.
6-10 baseline images from before the appearance of adenosine effects were averaged to give a representative baseline image, and a similar number of images at peak adenosine effect were likewise averaged. […]

myocardium [2] = assay: Open chest ultrasound imaging of the heart with contrast agent, then adenosine bolus; format: in vivo, dog
Procedure: A midline sternotomy was performed on an anaesthetised 20 kg mongrel dog and the anterior pericardium was removed. A short axis view of the heart was imaged with an ATL HDI-3000 scanner, using a P5-3 transducer in harmonic mode; a 30 mm silicone rubber spacer having low ultrasound attenuation was placed between the transducer and the anterior surface of the heart. ECG gating was used so as to acquire one image in each end-systole.
as §1, §2
(§3) 6-10 baseline images from before the appearance of adenosine effects were averaged to give a representative baseline image, and a similar number of images at peak adenosine effect were likewise averaged. The two thus-obtained averaged images were then subtracted and the difference was colour coded. […] The colour coding was selected to represent the range −4 dB (blue colour) to +4 dB (red colour).
Images were acquired as described in Example 1 and processed according to the method of Example 4. The normal myocardium was depicted with a homogeneous colour indicating a signal increase of some 3-4 dB.

myocardium [3] = assay: Imaging in man: pulse inversion imaging of the heart with contrast agent and adenosine infusion; format: in vivo, human; details: adenosine i.v. infusion 140 μg/kg/min, apical 2-chamber view, Preparation 1 contrast agent
Procedure: A patient with an angiographically verified 80% left anterior descending arterial stenosis was given an intravenous injection of 1 ml of a perfluorobutane microbubble suspension prepared as in Preparation 1. The heart was imaged with an ATL HDI-5000 scanner and a P4-2 transducer, using ECG-gated (every second end-systole) pulse inversion imaging; the mechanical index was 0.6. The heart was imaged from an apical 2-chamber view. […] Intravenous infusion of adenosine at a rate of 140 μg/kg/min was then started, and a sequence of 30 images, of which 10 were before the onset of adenosine effects in the heart, were stored in digital format. The images were processed as in Example 4, but without the initial video grabbing steps.

myocardium [4] = assay: Open chest ultrasound imaging with partial coronary occlusion (snare on left anterior descending coronary artery); format: in vivo, dog; details: for change in contrast effect in the myocardium, except in areas supplied by the stenotic artery: one minute after start of infusion
Procedure: The procedure of Example 1 was repeated except that an occluding snare was placed around the major branch of the left anterior descending coronary artery. An ultrasound transit time flow meter was applied to the same artery and the snare was adjusted to give a stable reduction in blood flow to about 75% of the normal value. Contrast agent and adenosine injections were then administered as in Example 1.
as §1, §2, §3
Images were acquired as described in Example 3 and processed according to the method of Example 4.
The procedure of Example 3 is repeated except that the bolus injection of adenosine is replaced with a pumpcontrolled infusion of dobutamine at a rate of 15 μg/kg/min.
The procedure of Example 3 is repeated except that the bolus injection of adenosine is replaced with a pumpcontrolled infusion of arbutamine at a rate of 0.4 μg/kg/min.

[5] = tested on: left circumflex perfusion beds; details: contrast agent perfluoropropane-enhanced sonicated dextrose albumin i.v., cited from earlier work
[6] = in vivo; cited from earlier work
[7] = adenosine 150 μg/kg i.v. bolus after Preparation 1 contrast agent
[8] = blood flow reduced to about 75% of normal, adenosine 150 μg/kg i.v. bolus, Preparation 1 contrast agent
[9] = following injection of adenosine, processed difference image

## Nc1ncnc2c1ncn2[C@@H]1O[C@H](CO)[C@@H](O)[C@H]1O [Adenosine, adenosine]
Myocardium [1]; parasternal transducer position
  change in echo intensities after injection of adenosine: general increase in echo intensities comparable to that observed in Example 1
Myocardium [1]; peak adenosine effect versus baseline
  signal increase in normal myocardium (processed difference image): 3-4 dB
Myocardium [2]; [7]
  change in echo intensity from the myocardium: distinct general increase in echo intensity
  duration of the increase in echo intensity: ~15 s
  time from adenosine injection to increase in echo intensity from the myocardium: 7 s
Myocardium [2]; open chest, peak adenosine effect versus baseline, Preparation 1 contrast agent
  signal increase in normal myocardium (processed difference image): 3-4 dB
Myocardium [3]
  decrease in signal intensity in myocardial regions supplied by the stenotic artery: 1-2 dB
  increase in signal intensity in normal regions of the myocardium: 2-3 dB
Myocardium [4]; [8]
  change in contrast effect in all other areas of the myocardium: increase
  change in contrast effect in tissue areas affected by the occlusion: slight decrease in contrast effect
Myocardium [4]; [9]
  decrease in signal intensity in myocardial tissue affected by the simulated coronary stenosis: 1-3 dB
  increase in signal intensity in normal myocardium: 2-3 dB
[5]; stenoses with diameter in excess of 70%
  ratio of peak myocardial videointensities, adenosine stress compared to resting: 0.8-1.4
[5]; stenoses with diameter not exceeding 50%
  ratio of peak myocardial videointensities, adenosine stress compared to resting: 1.8-2.1
[6]
  blood pool half-life: only a few seconds

## Oc1ccc(CCCCNC[C@H](O)c2ccc(O)c(O)c2)cc1 [arbutamine]
Myocardium [4]; arbutamine infusion 0.4 μg/kg/min, Preparation 1 contrast agent
  change in contrast effect in the myocardium, except in areas supplied by the stenotic artery: increase in contrast effect

## CC(CCc1ccc(O)cc1)NCCc1ccc(O)c(O)c1 (centres unmarked) [dobutamine]
Myocardium [4]; dobutamine infusion 15 μg/kg/min, Preparation 1 contrast agent
  change in contrast effect in the myocardium, except in areas supplied by the stenotic artery: increase in contrast effect

— US20040052728A1, “Diagnostic imaging” (priority 1998, published 2004)
